In ChEMBL document CHEMBL3046635, “Synthesis and Herbicidal Activity of New Pyrazole-4-carboxamide Derivatives” (J Pestic Sci, 2004):
Activity calls are given as the source filed them.

Experiments:
[1] = test system: Eleocharis acicularis; assay: Pre-emergence herbicidal activity against Eleocharis acicularis at 100 g a.i/ha measured after 14 days; assay type: functional, organism-based
[2] = test system: Oryza sativa; assay: Phytotoxicity against Oryza sativa cv. Koshihikari (rice) at 100 g a.i/ha measured after 14 days; assay type: organism-based; conditions: in vivo, 336 h
[3] = test system: Schoenoplectiella juncoides; assay: Pre-emergence herbicidal activity against Schoenoplectiella juncoides at 100 g a.i/ha measured after 14 days; assay type: functional, organism-based
[4] = test system: Pontederia vaginalis; assay: Pre-emergence herbicidal activity against Monochoria vaginalis at 100 g a.i/ha measured after 14 days; assay type: functional, organism-based
[5] = test system: Ammannia multiflora; assay: Pre-emergence herbicidal activity against Ammannia multiflora at 100 g a.i/ha measured after 14 days; assay type: functional, organism-based
[6] = test system: Rotala indica; assay: Pre-emergence herbicidal activity against Rotala indica at 100 g a.i/ha measured after 14 days; assay type: functional, organism-based
[7] = test system: Elatine triandra; assay: Pre-emergence herbicidal activity against Elatine triandra at 100 g a.i/ha measured after 14 days; assay type: functional, organism-based
[8] = test system: Lindernia procumbens; assay: Pre-emergence herbicidal activity against Lindernia procumbens at 100 g a.i/ha measured after 14 days; assay type: functional, organism-based
[9] = test system: Cyperus difformis; assay: Pre-emergence herbicidal activity against Cyperus difformis at 100 g a.i/ha measured after 14 days; assay type: functional, organism-based
[10] = test system: Echinochloa oryzicola; assay: Pre-emergence herbicidal activity against Echinochloa oryzicola at 100 g a.i/ha measured after 14 days; assay type: functional, organism-based
[11] = test system: Oryza sativa; assay: Phytotoxicity against Oryza sativa cv. Koshihikari (rice) at 500 g a.i/ha measured after 14 days; assay type: organism-based; conditions: in vivo, 336 h
[12] = test system: Eleocharis acicularis; assay: Pre-emergence herbicidal activity against Eleocharis acicularis at 500 g a.i/ha measured after 14 days; assay type: functional, organism-based
[13] = test system: Pontederia vaginalis; assay: Pre-emergence herbicidal activity against Monochoria vaginalis at 500 g a.i/ha measured after 14 days; assay type: functional, organism-based
[14] = test system: Schoenoplectiella juncoides; assay: Pre-emergence herbicidal activity against Schoenoplectiella juncoides at 500 g a.i/ha measured after 14 days; assay type: functional, organism-based
[15] = test system: Ammannia multiflora; assay: Pre-emergence herbicidal activity against Ammannia multiflora at 500 g a.i/ha measured after 14 days; assay type: functional, organism-based
[16] = test system: Elatine triandra; assay: Pre-emergence herbicidal activity against Elatine triandra at 500 g a.i/ha measured after 14 days; assay type: functional, organism-based
[17] = test system: Rotala indica; assay: Pre-emergence herbicidal activity against Rotala indica at 500 g a.i/ha measured after 14 days; assay type: functional, organism-based
[18] = test system: Lindernia procumbens; assay: Pre-emergence herbicidal activity against Lindernia procumbens at 500 g a.i/ha measured after 14 days; assay type: functional, organism-based
[19] = test system: Echinochloa oryzicola; assay: Pre-emergence herbicidal activity against Echinochloa oryzicola at 500 g a.i/ha measured after 14 days; assay type: functional, organism-based
[20] = test system: Cyperus difformis; assay: Pre-emergence herbicidal activity against Cyperus difformis at 500 g a.i/ha measured after 14 days; assay type: functional, organism-based
[21] = test system: Eleocharis acicularis; assay: Post-emergence herbicidal activity against Eleocharis acicularis assessed as bleaching of stem/leaf parts; assay type: functional, organism-based; note: test concentration or dose not given here
[22] = test system: Eleocharis acicularis; assay: Pre-emergence herbicidal activity against Eleocharis acicularis assessed as bleaching of stem/leaf parts; assay type: functional, organism-based
[23] = test system: Ammannia multiflora; assay: Pre-emergence herbicidal activity against Ammannia multiflora assessed as bleaching of stem/leaf parts; assay type: functional, organism-based
[24] = test system: Rotala indica; assay: Pre-emergence herbicidal activity against Rotala indica assessed as bleaching of stem/leaf parts; assay type: functional, organism-based
[25] = test system: Elatine triandra; assay: Pre-emergence herbicidal activity against Elatine triandra assessed as bleaching of stem/leaf parts; assay type: functional, organism-based
[26] = test system: Lindernia procumbens; assay: Pre-emergence herbicidal activity against Lindernia procumbens assessed as bleaching of stem/leaf parts; assay type: functional, organism-based
[27] = test system: Schoenoplectiella juncoides; assay: Pre-emergence herbicidal activity against Schoenoplectiella juncoides assessed as bleaching of stem/leaf parts; assay type: functional, organism-based
[28] = test system: Pontederia vaginalis; assay: Pre-emergence herbicidal activity against Monochoria vaginalis assessed as bleaching of stem/leaf parts; assay type: functional, organism-based
[29] = test system: Cyperus difformis; assay: Pre-emergence herbicidal activity against Cyperus difformis assessed as bleaching of stem/leaf parts; assay type: functional, organism-based
[30] = test system: Echinochloa oryzicola; assay: Pre-emergence herbicidal activity against Echinochloa oryzicola assessed as bleaching of stem/leaf parts; assay type: functional, organism-based
[31] = test system: Ammannia multiflora; assay: Post-emergence herbicidal activity against Ammannia multiflora assessed as bleaching of stem/leaf parts; assay type: functional, organism-based; note: test concentration or dose not given here
[32] = test system: Elatine triandra; assay: Post-emergence herbicidal activity against Elatine triandra assessed as bleaching of stem/leaf parts; assay type: functional, organism-based; note: test concentration or dose not given here
[33] = test system: Rotala indica; assay: Post-emergence herbicidal activity against Rotala indica assessed as bleaching of stem/leaf parts; assay type: functional, organism-based; note: test concentration or dose not given here
[34] = test system: Schoenoplectiella juncoides; assay: Post-emergence herbicidal activity against Schoenoplectiella juncoides assessed as bleaching of stem/leaf parts; assay type: functional, organism-based; note: test concentration or dose not given here
[35] = test system: Lindernia procumbens; assay: Post-emergence herbicidal activity against Lindernia procumbens assessed as bleaching of stem/leaf parts; assay type: functional, organism-based; note: test concentration or dose not given here
[36] = test system: Pontederia vaginalis; assay: Post-emergence herbicidal activity against Monochoria vaginalis assessed as bleaching of stem/leaf parts; assay type: functional, organism-based; note: test concentration or dose not given here
[37] = test system: Cyperus difformis; assay: Post-emergence herbicidal activity against Cyperus difformis assessed as bleaching of stem/leaf parts; assay type: functional, organism-based; note: test concentration or dose not given here
[38] = test system: Echinochloa oryzicola; assay: Post-emergence herbicidal activity against Echinochloa oryzicola assessed as bleaching of stem/leaf parts; assay type: functional, organism-based; note: test concentration or dose not given here

Structure (SMILES) | Activity [1] | Activity [2] | Activity [3] | Activity [4] | Activity [5] | Activity [6] | Activity [7] | Activity [8] | Activity [9] | Activity [10] | Activity [11] | Activity [12] | Activity [13] | Activity [14] | Activity [15] | Activity [16] | Activity [17] | Activity [18] | Activity [19] | Activity [20] | other results
Cn1cc(C(=O)Nc2ccc(Cl)cc2Cl)c(OCc2cccc(C(F)(F)F)c2)n1 | Active | Non-toxic | inactive | Active | Active | Active | Active | Active | Active | inactive | Toxic | Active | Active | Active | Active | Active | Active | Active | Active | Active | Activity [21]: Active; Activity [22]: Active; Activity [23]: Active; Activity [24]: Active; Activity [25]: Active; Activity [26]: Active; Activity [27]: Active; Activity [28]: Active; Activity [29]: Active; Activity [30]: Active; Activity [31]: Active; Activity [32]: Active; Activity [33]: Active; Activity [34]: Active; Activity [35]: Active; Activity [36]: Active; Activity [37]: Active; Activity [38]: Active
Cn1cc(C(=O)NOc2ccc(F)cc2F)c(OCc2cccc(C(F)(F)F)c2)n1 | Active | Non-toxic | inactive | Active | Active | Active | Active | Active | Active | inactive | Non-toxic | Active | Active | Active | Active | Active | Active | Active | Active | Active | Activity [21]: Active; Activity [22]: Active; Activity [23]: Active; Activity [24]: Active; Activity [25]: Active; Activity [26]: Active; Activity [27]: Active; Activity [28]: Active; Activity [29]: Active; Activity [30]: Active; Activity [31]: Active; Activity [32]: Active; Activity [33]: Active; Activity [34]: Active; Activity [35]: Active; Activity [36]: Active; Activity [37]: Active; Activity [38]: Active
Cn1cc(C(=O)NOc2ccc(Cl)cc2Cl)c(OCc2cccc(C(F)(F)F)c2)n1 | Active | Non-toxic | inactive | Active | Active | Active | Active | Active | Active | Active | Non-toxic | Active | Active | Active | Active | Active | Active | Active | Active | Active | Activity [21]: Active; Activity [22]: Active; Activity [23]: Active; Activity [24]: Active; Activity [25]: Active; Activity [26]: Active; Activity [27]: Active; Activity [28]: Active; Activity [29]: Active; Activity [30]: Active; Activity [31]: Active; Activity [32]: Active; Activity [33]: Active; Activity [34]: Active; Activity [35]: Active; Activity [36]: Active; Activity [37]: Active; Activity [38]: Active
